Each block holds one molecule with its values, some of them ahead of it.
Columns and labels:
Assay type in all cases: physicochemical
[1] = Competitive slurry experiments, stability relationship of polymorphs in 10% water/acetone
Protocol: To evaluate the transformation of Compound 1 Di-Hydrochloric Acid Salt solid forms, competitive slurry experiments at 25±1° C. and 60±1° C. in the solvent of 10% water/acetone were performed with a mixture of eight polymorphs (Form I, and Form III through Form IX) as described in Table 23 and Table 24. [table] [table]

[2] = Solubility measurement in various solvents at 25° C. (Procedure 1); conditions: thermodynamic from solid
Protocol: (§1) The solubility of Compound 1 Di-Hydrochloric Acid Salt Form I was measured according to Procedure 1 for solubility in 25° C. (Table 5) and Procedure 2 for 50° C. [table] [table]

[3] = Solubility measurement in various solvents at 50° C. (Procedure 2)
Protocol: as §1

[4] = 2% water in acetone, organic solvent or mixture
[5] = 2% water in acetonitrile, organic solvent or mixture
[6] = 2-methoxyethanol, organic solvent or mixture
[7] = 5% water in acetone, organic solvent or mixture
[8] = 5% water in acetonitrile, organic solvent or mixture
[9] = 10% water in acetone, organic solvent or mixture
[10] = 10% water in acetonitrile, organic solvent or mixture
[11] = DMF, organic solvent or mixture
[12] = DMSO, organic solvent or mixture
[13] = EtOH, organic solvent or mixture
[14] = IPA, organic solvent or mixture
[15] = MeCN, organic solvent or mixture
[16] = acetone, organic solvent or mixture
[17] = chloroform, organic solvent or mixture

Polymorph transformation in competitive slurry (XRPD) ([1]; mixture of polymorphs stirred in 10% water/acetone at 25±° C. for 20 hours and at 60±° C. for 2 h): converted to Form I
SMILES: Cl.Cl.Cn1c(C(=O)Nc2cccc(-c3cccc(NC(=O)c4nc5c(n4C)CCN(CCC46CCC(C(=O)O)(CC4)C6)C5)c3Cl)c2Cl)nc2c1CCN(CCC13CCC(C(=O)O)(CC1)C3)C2 [Form III, 4,4′-(((((2,2′-dichloro-[1,1′-biphenyl]-3,3′-diyl)bis(azanediyl))bis(carbonyl))bis(1-methyl-1,4,6,7-tetrahydro-5H-imidazo[4,5-c]pyridine-2,5-diyl))bis(ethane-2,1-diyl))bis(bicyclo[2.2.1]heptane-1-carboxylic acid) di-hydrochloric acid salt]

solubility [2, 4]: 50 µg/mL | solubility [2, 5]: 10 µg/mL | solubility [2, 6]: 16900 µg/mL | solubility [2, 7]: 320 µg/mL | solubility [2, 8]: 1040 µg/mL | solubility [2, 9]: 2300 µg/mL | solubility [2, 10]: 3640 µg/mL | solubility [2, 11]: 2980 µg/mL | solubility [2, 12]: > 50000 µg/mL | solubility [2, 13]: 390 µg/mL | solubility [2, 14]: 650 µg/mL | solubility ([2]; IPAc, organic solvent or mixture): 10 µg/mL | solubility [2, 15]: 20 µg/mL | solubility ([2]; THF, organic solvent or mixture): 50 µg/mL | solubility [2, 16]: 10 µg/mL | solubility [2, 17]: > 50000 µg/mL | solubility ([2]; organic solvent or mixture, 1-Propanol, solid phase Form V): 710 µg/mL | solubility ([2]; organic solvent or mixture, Methanol, solid phase Form III): 18800 µg/mL | solubility ([2]; organic solvent or mixture, n-BuOH, solid phase Form IV): 460 µg/mL | solubility ([2]; Water, solid phase Form VI): 12900 µg/mL | solubility ([3]; 1,4-dioxane, organic solvent or mixture): 10 µg/mL | solubility ([3]; 1-propanol, organic solvent or mixture): 1120 µg/mL | solubility [3, 4]: 110 µg/mL | solubility [3, 5]: 10 µg/mL | solubility [3, 6]: 28300 µg/mL | solubility [3, 7]: 560 µg/mL | solubility [3, 8]: 1210 µg/mL | solubility [3, 9]: 5710 µg/mL | solubility [3, 10]: 6610 µg/mL | solubility [3, 11]: 5480 µg/mL | solubility [3, 12]: > 50000 µg/mL | solubility [3, 13]: 1100 µg/mL | solubility [3, 14]: 980 µg/mL | solubility ([3]; MEK, organic solvent or mixture): 150 µg/mL | solubility ([3]; MIBK, organic solvent or mixture): 10 µg/mL | solubility [3, 15]: 10 µg/mL | solubility ([3]; THF, organic solvent or mixture, thermodynamic from solid): 40 µg/mL | solubility [3, 16]: 10 µg/mL | solubility [3, 17]: > 50000 µg/mL | solubility ([3]; methanol, organic solvent or mixture, thermodynamic from solid): 22100 µg/mL | solubility ([3]; organic solvent or mixture, thermodynamic from solid, n-BuOH, solid phase Form IV): 420 µg/mL | solubility ([3]; thermodynamic from solid, Water, solid phase Form VI): 14800 µg/mL | Relative stability of polymorphic forms ([1]; 10% water/acetone at 25 and 60° C., competitive slurry): most stable polymorphic form
SMILES: Cl.Cl.Cn1c(C(=O)Nc2cccc(-c3cccc(NC(=O)c4nc5c(n4C)CCN(CCC46CCC(C(=O)O)(CC4)C6)C5)c3Cl)c2Cl)nc2c1CCN(CCC13CCC(C(=O)O)(CC1)C3)C2 [4,4′-(((((2,2′-dichloro-[1,1′-biphenyl]-3,3′-diyl)bis(azanediyl))bis(carbonyl))bis(1-methyl-1,4,6,7-tetrahydro-5H-imidazo[4,5-c]pyridine-2,5-diyl))bis(ethane-2,1-diyl))bis(bicyclo[2.2.1]heptane-1-carboxylic acid) di-hydrochloric acid salt]

— US11866451B2, “Salts and crystalline forms of a PD-1/PD-L1 inhibitor” (Incyte Corporation, priority 2019, dated 2024)
